Each structure is given as a SMILES string.

From patent US9359308B2, “Pyrazine kinase inhibitors” (Portola Pharmaceuticals, Inc., priority 2011, dated 2016) come the findings set out here.

The assay has as its target T1, full length active recombinant SYK enzyme (Homo sapiens, UniProt P43405).
T1 construct: full length active recombinant SYK enzyme (Millipore, Calif.); purchased Millipore
Put plainly: Inhibition of Syk tyrosine phosphorylation activity (LANCE TR-FRET kinase assay). Particulars: activity in the Syk assays, class symbols. Type of assay: biochemical. In outline: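 IC50 was derived by non-linear regression of TR-FRET signal (Eu-W1024-PY100 donor, streptavidin-APC acceptor) read 1 h after EDTA quench. The kinase step ran 1 h at room temperature with 1 nM full-length SYK, 550 nM biotinylated DEEDYESP substrate and 100 μM ATP in Tris pH 7.5/MgCl2/DTT at 3% final DMSO.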
One may read the IC50 as the concentration that inhibits the measured activity by half. `CN(C)C(=O)c1ccc(Nc2nc(N[C@@H]3CCCC[C@@H]3N)cnc2C(N)=O)cn1` [Example 278, 5-((1R,2S)-2-aminocyclohexylamino)-3-(6-(dimethylcarbamoyl)pyridin-3-ylamino)pyrazine-2-carboxamide]: the IC50 lay in the range of 100 to 1000 nM.

For the compound `CN(C)C(=O)c1ccc(Nc2nc(N[C@@H]3CCCC[C@@H]3N)cnc2C(N)=O)cc1Cl` [Example 279, 5-((1R,2S)-2-aminocyclohexylamino)-3-(3-chloro-4-(dimethylcarbamoyl)phenylamino)pyrazine-2-carboxamide], the IC50 lay in the range of 10 to 100 nM. Next, `NC(=O)c1ncc(N[C@@H]2CCCC[C@@H]2N)nc1Nc1ccc(C(=O)N2CCC2)nc1` [Example 280, 5-((1R,2S)-2-aminocyclohexylamino)-3-(6-(azetidine-1-carbonyl)pyridin-3-ylamino)pyrazine-2-carboxamide]: 10 to 100 nM; `CC(C)C[C@@H](Nc1cnc(C(N)=O)c(Nc2ccc(C(=O)N(C)C)cc2)n1)C(N)=O` [Example 281, (R)-5-(1-amino-4-methyl-1-oxopentan-2-ylamino)-3-(4-(dimethylcarbamoyl)phenylamino)pyrazine-2-carboxamide]: 10 to 100 nM; `CC(C)C[C@@H](Nc1cnc(C(N)=O)c(Nc2ccc(C(=O)N3CCC3)nc2)n1)C(N)=O` [Example 282, (R)-5-(1-amino-4-methyl-1-oxopentan-2-ylamino)-3-(6-(azetidine-1-carbonyl)pyridin-3-ylamino)pyrazine-2-carboxamide]: 1 to 10 nM. With `CN(C)C(=O)c1cccc(Nc2nc(N[C@@H]3CCCC[C@@H]3N)cnc2C(N)=O)c1` [Example 283, 5-((1R,2S)-2-aminocyclohexylamino)-3-(3-(dimethylcarbamoyl)phenylamino)pyrazine-2-carboxamide] the figure was 10 to 100 nM. Next, `CN(C)C(=O)c1cc(Nc2nc(N[C@@H]3CCCC[C@@H]3N)cnc2C(N)=O)ccc1F` [Example 284, 5-((1R,2S)-2-aminocyclohexylamino)-3-(3-(dimethylcarbamoyl)-4-fluorophenylamino)pyrazine-2-carboxamide]: 100 to 1000 nM; `NC(=O)c1ncc(N[C@@H]2CCCC[C@@H]2N)nc1Nc1ccc(N2CCCC2)c(C(=O)N2CCCC2)c1` [Example 285, 5-((1R,2S)-2-aminocyclohexylamino)-3-(4-(pyrrolidin-1-yl)-3-(pyrrolidine-1-carbonyl)phenylamino)pyrazine-2-carboxamide]: 100 to 1000 nM; `COc1ccc(Nc2nc(N[C@@H]3CCCC[C@@H]3N)cnc2C(N)=O)cc1C(=O)N(C)C` [Example 286, 5-((1R,2S)-2-aminocyclohexylamino)-3-(3-(dimethylcarbamoyl)-4-methoxyphenylamino)pyrazine-2-carboxamide]: 100 to 1000 nM. With `NC(=O)c1ncc(N[C@@H]2CCCC[C@@H]2N)nc1Nc1cccc(C(=O)N2CCCC2)c1` [Example 287, 5-((1R,2S)-2-aminocyclohexylamino)-3-(3-(pyrrolidine-1-carbonyl)phenylamino)pyrazine-2-carboxamide], the IC50 lay in the range of 10 to 100 nM. Next, `CN(C)C(=O)c1ccc(F)c(Nc2nc(N[C@@H]3CCCC[C@@H]3N)cnc2C(N)=O)c1` [Example 288, 5-((1R,2S)-2-aminocyclohexylamino)-3-(5-(dimethylcarbamoyl)-2-fluorophenylamino)pyrazine-2-carboxamide]: 100 to 1000 nM; `NC(=O)c1ncc(N[C@@H]2CCCC[C@@H]2N)nc1Nc1cc(C(=O)N2CCCC2)ccc1F` [Example 289, 5-((1R,2S)-2-aminocyclohexylamino)-3-(2-fluoro-5-(pyrrolidine-1-carbonyl)phenylamino)pyrazine-2-carboxamide]: 10 to 100 nM; `COc1ccc(C(=O)N(C)C)cc1Nc1nc(N[C@@H]2CCCC[C@@H]2N)cnc1C(N)=O` [Example 290, 5-((1R,2S)-2-aminocyclohexylamino)-3-(5-(dimethylcarbamoyl)-2-methoxyphenylamino)pyrazine-2-carboxamide]: 100 to 1000 nM.

Regarding `COc1cc(Nc2nc(N[C@@H]3CCCC[C@@H]3N)cnc2C(N)=O)ccn1` [Example 291, 5-((1R,2S)-2-aminocyclohexylamino)-3-(2-methoxypyridin-4-ylamino)pyrazine-2-carboxamide], the IC50 fell in the range of 1 to 10 nM. With `CC(C)C[C@@H](Nc1cnc(C(N)=O)c(Nc2cccc(C(=O)N(C)C)c2)n1)C(N)=O` [Example 292, (R)-5-(1-amino-4-methyl-1-oxopentan-2-ylamino)-3-(3-(dimethylcarbamoyl)phenylamino)pyrazine-2-carboxamide] the figure was 100 to 1000 nM; with `CC(C)C[C@@H](Nc1cnc(C(N)=O)c(Nc2ccc(C(=O)N3CCC3)cc2)n1)C(N)=O` [Example 293, (R)-5-(1-amino-4-methyl-1-oxopentan-2-ylamino)-3-(4-(azetidine-1-carbonyl)phenylamino)pyrazine-2-carboxamide], 1 to 10 nM. Next, `CC(C)C[C@@H](Nc1cnc(C(N)=O)c(Nc2ccc(C(=O)O)nc2)n1)C(N)=O` [Example 294, (R)-5-(6-(1-amino-4-methyl-1-oxopentan-2-ylamino)-3-carbamoylpyrazin-2-ylamino)picolinic acid]: 100 to 1000 nM. With `NC(=O)c1ncc(N[C@@H]2CCCC[C@@H]2N)nc1Nc1ccc(C(=O)N2CCC2)cc1` [Example 295, 5-((1R,2S)-2-aminocyclohexylamino)-3-(4-(azetidine-1-carbonyl)phenylamino)pyrazine-2-carboxamide] the figure was 1 to 10 nM; with `COc1ccc(Nc2nc(N[C@@H]3CCCC[C@@H]3N)cnc2C(N)=O)cn1` [Example 296, 5-((1R,2S)-2-aminocyclohexylamino)-3-(6-methoxypyridin-3-ylamino)pyrazine-2-carboxamide], 1 to 10 nM. Take `NC(=O)c1ncc(N[C@@H]2CCCC[C@@H]2N)nc1Nc1ccc(C(=O)N2CC(F)(F)C2)nc1` [Example 297, 5-((1R,2S)-2-aminocyclohexylamino)-3-(6-(3,3-difluoroazetidine-1-carbonyl)pyridin-3-ylamino)pyrazine-2-carboxamide]: the IC50 was in the range of 1 to 10 nM.

In the case of `CN(CC(F)(F)F)C(=O)c1ccc(Nc2nc(N[C@@H]3CCCC[C@@H]3N)cnc2C(N)=O)cc1` [Example 298, 5-((1R,2S)-2-aminocyclohexylamino)-3-(4-(methyl(2,2,2-trifluoroethyl)carbamoyl)phenylamino)pyrazine-2-carboxamide], the IC50 lay within 10 to 100 nM. With `CC[C@@H](Nc1cnc(C(N)=O)c(Nc2ccc(C(=O)N(C)C)cc2)n1)C(N)=O` [Example 299, (R)-5-(1-amino-1-oxobutan-2-ylamino)-3-(4-(dimethylcarbamoyl)phenylamino)pyrazine-2-carboxamide] the figure was 100 to 1000 nM; with `CC[C@@H](Nc1cnc(C(N)=O)c(Nc2ccc(C(=O)N3CCC3)nc2)n1)C(N)=O` [Example 300, (R)-5-(1-amino-1-oxobutan-2-ylamino)-3-(6-(azetidine-1-carbonyl)pyridin-3-ylamino)pyrazine-2-carboxamide], 10 to 100 nM; with `CC[C@@H](Nc1cnc(C(N)=O)c(Nc2ccc(C(=O)N3CC(F)(F)C3)nc2)n1)C(N)=O` [Example 301, (R)-5-(1-amino-1-oxobutan-2-ylamino)-3-(6-(3,3-difluoroazetidine-1-carbonyl)pyridin-3-ylamino)pyrazine-2-carboxamide], 10 to 100 nM. Next, `CC[C@@H](Nc1cnc(C(N)=O)c(Nc2ccnc(OC)c2)n1)C(N)=O` [Example 302, (R)-5-(1-amino-1-oxobutan-2-ylamino)-3-(2-methoxypyridin-4-ylamino)pyrazine-2-carboxamide]: 10 to 100 nM; `NC(=O)c1ncc(N[C@@H]2CCCC[C@@H]2N)nc1Nc1cncnc1` [Example 303, 5-((1R,2S)-2-aminocyclohexylamino)-3-(pyrimidin-5-ylamino)pyrazine-2-carboxamide]: 10 to 100 nM. With `NC(=O)c1ncc(N[C@@H]2CCCC[C@@H]2N)nc1Nc1ccc(F)nc1` [Example 304, 5-((1R,2S)-2-aminocyclohexylamino)-3-(6-fluoropyridin-3-ylamino)pyrazine-2-carboxamide] the figure was 10 to 100 nM; with `COc1ncc(Nc2nc(N[C@@H]3CCCC[C@@H]3N)cnc2C(N)=O)cn1` [Example 305, 5-((1R,2S)-2-aminocyclohexylamino)-3-(2-methoxypyrimidin-5-ylamino)pyrazine-2-carboxamide], 10 to 100 nM. Consider `COc1ncc(Nc2nc(N[C@@H]3CCCC[C@@H]3N)cnc2C(N)=O)cc1C` [Example 306, 5-((1R,2S)-2-aminocyclohexylamino)-3-(6-methoxy-5-methylpyridin-3-ylamino)pyrazine-2-carboxamide], for which the IC50 lay within 1 to 10 nM. Next, `NC(=O)c1ncc(N[C@@H]2CCCC[C@@H]2N)nc1Nc1cccc(C(=O)N2CCC2)c1` [Example 307, 5-((1R,2S)-2-aminocyclohexylamino)-3-(3-(azetidine-1-carbonyl)phenylamino)pyrazine-2-carboxamide]: 10 to 100 nM; `CCOc1ccc(Nc2nc(N[C@@H]3CCCC[C@@H]3N)cnc2C(N)=O)cn1` [Example 308, 5-((1R,2S)-2-aminocyclohexylamino)-3-(6-ethoxypyridin-3-ylamino)pyrazine-2-carboxamide]: 1 to 10 nM; `COc1cncc(Nc2nc(N[C@@H]3CCCC[C@@H]3N)cnc2C(N)=O)c1` [Example 309, 5-((1R,2S)-2-aminocyclohexylamino)-3-(5-methoxypyridin-3-ylamino)pyrazine-2-carboxamide]: 1 to 10 nM. `CC[C@@H](Nc1cnc(C(N)=O)c(Nc2ccc(N(C)C)nc2)n1)C(N)=O` [Example 310, (R)-5-(1-amino-1-oxobutan-2-ylamino)-3-(6-(dimethylamino)pyridin-3-ylamino)pyrazine-2-carboxamide]: the IC50 was 10 to 100 nM.
